Assay results as given in ChEMBL document CHEMBL1201862, “PubChem BioAssay data set” (2004).
Several values for one entry are separate records, joined by “and”; a condition that tells them apart may be missing. Equal entries are not always repeated. Activity calls are given as the source filed them.

Legend:
[1] = biological target: Protein disulfide-isomerase (Homo sapiens, UniProt P07237); assay: inhibition of PDI-mediated insulin reduction – biochemical, turbidity, dry powder samples, set 2, confirmation (AID 652146)
[2] = biological target: DNA dC->dU-editing enzyme APOBEC-3A (Homo sapiens, UniProt P31941); assay: Dose Response confirmation of small molecule APOBEC3A DNA Deaminase Inhibitors via a fluorescence-based single-stranded DNA deaminase assay. [Related pubchem assays (depositor defined):AID493011, AID493024]; type: functional
Chain of DNA dC->dU-editing enzyme APOBEC-3A (P31941 whole entry): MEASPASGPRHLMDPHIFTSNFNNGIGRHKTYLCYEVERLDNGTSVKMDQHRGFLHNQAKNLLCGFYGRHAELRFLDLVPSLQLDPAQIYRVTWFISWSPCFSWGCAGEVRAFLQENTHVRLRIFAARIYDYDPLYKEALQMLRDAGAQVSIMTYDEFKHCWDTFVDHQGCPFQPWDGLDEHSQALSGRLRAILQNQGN

[3] = biological target: DNA dC->dU-editing enzyme APOBEC-3G (Homo sapiens, UniProt Q9HC16); type: functional;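 further: Dose-response counterscreen measuring inhibition of APOBEC3G DNA deaminase activity, run while confirming APOBEC3A inhibitors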
Chain of DNA dC->dU-editing enzyme APOBEC-3G (Q9HC16 whole entry): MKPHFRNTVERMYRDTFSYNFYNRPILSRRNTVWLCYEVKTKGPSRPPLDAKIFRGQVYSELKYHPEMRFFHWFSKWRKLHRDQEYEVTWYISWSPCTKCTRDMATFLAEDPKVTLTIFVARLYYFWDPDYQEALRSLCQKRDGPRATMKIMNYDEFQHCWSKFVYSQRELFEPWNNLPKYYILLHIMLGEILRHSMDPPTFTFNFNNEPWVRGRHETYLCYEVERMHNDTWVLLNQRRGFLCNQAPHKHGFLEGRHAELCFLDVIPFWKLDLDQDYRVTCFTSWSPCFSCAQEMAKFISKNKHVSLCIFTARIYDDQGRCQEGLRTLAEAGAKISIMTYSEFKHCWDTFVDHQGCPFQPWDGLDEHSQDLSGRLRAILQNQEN

[4] = biological target: T1, Caspase-6 (Homo sapiens, UniProt P55212); assay: inhibition of CASP6 peptide cleavage – biochemical, VEID-R110 fluorescence, cherry-pick, dose response (AID 720632)
T1 sequence (P55212 whole entry): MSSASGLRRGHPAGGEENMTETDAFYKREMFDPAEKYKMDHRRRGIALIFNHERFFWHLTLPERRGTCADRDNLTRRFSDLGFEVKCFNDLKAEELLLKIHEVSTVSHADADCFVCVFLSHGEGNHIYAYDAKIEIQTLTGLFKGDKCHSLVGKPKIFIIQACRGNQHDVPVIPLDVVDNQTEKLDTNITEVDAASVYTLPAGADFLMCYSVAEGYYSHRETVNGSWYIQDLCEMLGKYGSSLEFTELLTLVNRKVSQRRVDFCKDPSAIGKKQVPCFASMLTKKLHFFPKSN

[5] = biological target: Caspase-8 (Homo sapiens, UniProt Q14790); assay: inhibitors of purified CASP8 protease – biochemical, Z-IETD-R110 fluorescence, cherry-picked samples, selectivity assay for caspase-6 inhibitor project, dose response (AID 743294)
Chain of Caspase-8 (Q14790 217-374 limits assumed): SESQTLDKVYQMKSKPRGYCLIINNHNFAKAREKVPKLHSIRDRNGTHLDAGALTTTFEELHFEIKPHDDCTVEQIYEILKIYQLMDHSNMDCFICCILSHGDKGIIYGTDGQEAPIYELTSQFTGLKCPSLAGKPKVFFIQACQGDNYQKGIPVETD
Chain of Caspase-8 (Q14790 385-479 limits assumed): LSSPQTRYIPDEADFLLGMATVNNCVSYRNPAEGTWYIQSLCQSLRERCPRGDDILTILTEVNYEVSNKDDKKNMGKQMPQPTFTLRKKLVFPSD

[6] = biological target: Protein Tat (Human immunodeficiency virus type 1 group M subtype B (isolate HXB2)(HIV-1), UniProt P04608); type: functional;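 further: tat binding to TAR RNA read out by fluorescence polarization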
[7] = viability loss in THP-1 monocytes – THP-1 cells, cytotoxicity control for Vif-APOBEC3G degradation inhibitor project, dose response (AID 1117359); type: functional; conditions: THP-1
[8] = biological target: SWI/SNF-related matrix-associated actin-dependent regulator of chromatin subfamily A member 2 (Homo sapiens, UniProt P51531); assay: Luminescence-based cell-based high throughput dose response assay to identify activators of the function of SWI/SNF related, matrix associated, actin dependent regulator of chromatin, subfamily a, member 2 (SMARCA2, BRM).; type: functional
Chain of SWI/SNF-related matrix-associated actin-dependent regulator of chromatin subfamily A member 2 (P51531 whole entry): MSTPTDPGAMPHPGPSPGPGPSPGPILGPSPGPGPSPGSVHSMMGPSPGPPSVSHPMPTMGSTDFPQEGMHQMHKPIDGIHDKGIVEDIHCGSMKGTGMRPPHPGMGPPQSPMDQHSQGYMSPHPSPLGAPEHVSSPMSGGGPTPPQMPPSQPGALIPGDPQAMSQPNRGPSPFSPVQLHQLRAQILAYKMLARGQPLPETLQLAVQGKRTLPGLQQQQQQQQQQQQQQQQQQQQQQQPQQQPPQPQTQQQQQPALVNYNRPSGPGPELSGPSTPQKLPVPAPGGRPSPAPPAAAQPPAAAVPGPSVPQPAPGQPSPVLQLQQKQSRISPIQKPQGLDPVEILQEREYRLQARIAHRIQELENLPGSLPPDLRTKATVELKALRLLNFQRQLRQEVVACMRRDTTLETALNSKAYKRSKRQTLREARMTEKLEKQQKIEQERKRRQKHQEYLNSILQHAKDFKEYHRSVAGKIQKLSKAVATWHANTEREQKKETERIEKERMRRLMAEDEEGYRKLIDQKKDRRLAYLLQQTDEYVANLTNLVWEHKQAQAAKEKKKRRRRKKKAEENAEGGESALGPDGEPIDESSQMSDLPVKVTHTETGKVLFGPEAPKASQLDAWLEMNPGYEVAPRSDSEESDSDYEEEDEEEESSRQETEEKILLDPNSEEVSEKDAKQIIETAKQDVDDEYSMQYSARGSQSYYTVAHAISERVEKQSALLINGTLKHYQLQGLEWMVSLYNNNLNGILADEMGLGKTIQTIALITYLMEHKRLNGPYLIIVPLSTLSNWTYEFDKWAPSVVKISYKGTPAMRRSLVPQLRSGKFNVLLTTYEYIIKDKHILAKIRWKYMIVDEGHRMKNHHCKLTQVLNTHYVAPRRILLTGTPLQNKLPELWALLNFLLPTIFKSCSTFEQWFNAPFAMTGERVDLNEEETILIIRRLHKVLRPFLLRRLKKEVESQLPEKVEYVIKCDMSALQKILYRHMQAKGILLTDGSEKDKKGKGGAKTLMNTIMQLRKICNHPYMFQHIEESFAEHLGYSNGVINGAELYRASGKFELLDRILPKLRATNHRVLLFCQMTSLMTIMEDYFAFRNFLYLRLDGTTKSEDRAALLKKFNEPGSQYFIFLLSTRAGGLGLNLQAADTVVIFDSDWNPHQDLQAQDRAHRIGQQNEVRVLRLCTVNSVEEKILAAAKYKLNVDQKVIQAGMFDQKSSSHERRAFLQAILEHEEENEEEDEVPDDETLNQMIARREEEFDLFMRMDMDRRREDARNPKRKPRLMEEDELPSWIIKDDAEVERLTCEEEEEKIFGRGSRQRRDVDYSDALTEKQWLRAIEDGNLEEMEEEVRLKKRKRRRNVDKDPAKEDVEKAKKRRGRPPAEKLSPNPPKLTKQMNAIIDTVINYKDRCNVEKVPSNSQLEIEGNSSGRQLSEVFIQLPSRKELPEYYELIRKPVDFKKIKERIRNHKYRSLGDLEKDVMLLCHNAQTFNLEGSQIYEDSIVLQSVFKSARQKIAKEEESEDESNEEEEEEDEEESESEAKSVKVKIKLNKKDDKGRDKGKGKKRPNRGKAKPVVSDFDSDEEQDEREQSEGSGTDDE

[9] = Counterscreen for activators of the function of SWI/SNF related, matrix associated, actin dependent regulator of chromatin, subfamily a, member 2 (SMARCA2, BRM): Luminescence-based cell-based high throughput dose response assay to identify non-selective compounds using the VP16 reporter assay.; type: functional
[10] = biological target: Endoplasmic reticulum aminopeptidase 1 (Homo sapiens, UniProt Q9NZ08); assay: inhibition of human ERAP1 enzyme activity – biochemical, cherry-pick, set 2, plate reader, dose response (AID 743314)
Chain of Endoplasmic reticulum aminopeptidase 1 (Q9NZ08 whole entry): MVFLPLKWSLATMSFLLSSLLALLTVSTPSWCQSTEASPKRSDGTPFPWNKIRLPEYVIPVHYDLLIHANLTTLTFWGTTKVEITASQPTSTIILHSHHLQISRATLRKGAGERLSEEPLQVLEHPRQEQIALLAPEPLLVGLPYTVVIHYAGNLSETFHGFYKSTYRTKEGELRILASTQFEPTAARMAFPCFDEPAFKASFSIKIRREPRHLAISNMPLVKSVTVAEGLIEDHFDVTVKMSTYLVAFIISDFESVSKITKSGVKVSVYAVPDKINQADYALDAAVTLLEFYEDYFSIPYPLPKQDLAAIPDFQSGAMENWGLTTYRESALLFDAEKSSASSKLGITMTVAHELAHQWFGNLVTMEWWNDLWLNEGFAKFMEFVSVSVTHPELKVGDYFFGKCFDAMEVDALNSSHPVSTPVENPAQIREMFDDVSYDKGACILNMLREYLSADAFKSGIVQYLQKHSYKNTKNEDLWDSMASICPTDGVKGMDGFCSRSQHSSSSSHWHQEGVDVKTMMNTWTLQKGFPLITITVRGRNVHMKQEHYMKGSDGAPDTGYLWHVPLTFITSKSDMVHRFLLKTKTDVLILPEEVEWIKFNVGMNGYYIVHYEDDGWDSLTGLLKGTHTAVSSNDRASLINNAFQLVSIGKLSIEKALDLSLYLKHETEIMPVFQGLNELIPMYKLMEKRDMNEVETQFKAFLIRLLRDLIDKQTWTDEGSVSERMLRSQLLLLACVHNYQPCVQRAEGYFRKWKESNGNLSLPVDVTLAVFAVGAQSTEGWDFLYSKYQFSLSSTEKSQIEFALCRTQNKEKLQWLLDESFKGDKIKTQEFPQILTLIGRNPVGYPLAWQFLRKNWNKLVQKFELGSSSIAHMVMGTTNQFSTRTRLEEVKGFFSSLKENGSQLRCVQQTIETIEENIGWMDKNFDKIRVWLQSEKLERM

[11] = biological target: T2, Beta-2 adrenergic receptor (Homo sapiens, UniProt P07550); assay: ADRB2 activation measured by internalization – cell-based, FAP fluorogen, flow cytometry, cherry pick 1, dose response (AID 588763); type: functional
T2 sequence (P07550 whole entry): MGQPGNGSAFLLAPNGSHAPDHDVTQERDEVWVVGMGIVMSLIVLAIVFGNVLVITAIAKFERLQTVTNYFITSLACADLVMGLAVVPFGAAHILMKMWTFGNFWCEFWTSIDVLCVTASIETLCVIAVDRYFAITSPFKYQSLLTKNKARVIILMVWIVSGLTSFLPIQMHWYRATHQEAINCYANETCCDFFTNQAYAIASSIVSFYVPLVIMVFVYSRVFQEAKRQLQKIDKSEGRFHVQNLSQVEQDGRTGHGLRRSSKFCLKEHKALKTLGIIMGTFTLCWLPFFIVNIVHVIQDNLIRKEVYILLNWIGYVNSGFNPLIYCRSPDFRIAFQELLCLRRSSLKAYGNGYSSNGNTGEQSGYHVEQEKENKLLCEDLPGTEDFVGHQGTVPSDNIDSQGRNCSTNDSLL

[12] = biological target: T2, Beta-2 adrenergic receptor; assay: Dose response for HTS for Beta-2AR agonists via FAP method from Powderset2.; type: functional
[13] = biological target: fMet-Leu-Phe receptor (Homo sapiens, UniProt P21462); assay: formyl peptide receptor binders – dose response (AID 519); type: functional
Chain of fMet-Leu-Phe receptor (P21462 whole entry): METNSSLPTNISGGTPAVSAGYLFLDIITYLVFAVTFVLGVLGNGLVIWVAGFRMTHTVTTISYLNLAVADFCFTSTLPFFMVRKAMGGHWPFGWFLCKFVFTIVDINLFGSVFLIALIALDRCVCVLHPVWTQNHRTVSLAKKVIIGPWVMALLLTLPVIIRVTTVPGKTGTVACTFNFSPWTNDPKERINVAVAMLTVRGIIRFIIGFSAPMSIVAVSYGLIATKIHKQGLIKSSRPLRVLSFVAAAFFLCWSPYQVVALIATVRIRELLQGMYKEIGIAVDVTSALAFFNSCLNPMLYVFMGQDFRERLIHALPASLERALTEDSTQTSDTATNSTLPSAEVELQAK

[14] = system: Vero; assay: cells; type: functional; conditions: Chlorocebus sabaeus
[15] = viability loss in HEK293T cells – cell-based, cherry-picks, cytotoxicity control for HIV Vif inhibitor project, dose response (AID 652208); type: functional
[16] = system: Vero; assay: viability loss in Vero cells – cell-based, plate reader, cherry-pick samples, cytotoxicity control, dose response (AID 687020); type: functional; conditions: Chlorocebus sabaeus
[17] = Late stage assay provider results from the probe development effort to identify selective inhibitors of heat shock protein 90 (HSP90): Absorbance-based cell proliferation assay in SKBR3 cells.; type: functional; conditions: SK-BR-3
[18] = Late stage assay provider results from the probe development effort to identify selective inhibitors of heat shock protein 90 (HSP90): Absorbance-based cell proliferation assay in MCF7 cells.; type: functional
[19] = T. cruzi growth inhibition in host cells, dose response, cell-based, plate reader, dry powder, set 2 (AID 652275); type: functional
[20] = viability of BHK-21 cells – cell-based, secondary screen, cytotoxicity control for flavivirus guanylyltransferase probe project (AID 624078); type: functional
[21] = system: HeLa; assay: ATP-based viability loss in HeLa cells – cell-based, CellTiter-Glo luminescence, cherry-pick samples, cytotoxicity control for MITF activator project, dose response (AID 540259); type: functional; conditions: Homo sapiens
[22] = cells; conditions: A549
[23] = cells; conditions: HEK293
[24] = biological target: Nonstructural protein 1 (Influenza A virus, UniProt Q194T2); type: functional, Influenza A virus (A/California/07/2009(H1N1))
Chain of Nonstructural protein 1 (Q194T2 whole entry): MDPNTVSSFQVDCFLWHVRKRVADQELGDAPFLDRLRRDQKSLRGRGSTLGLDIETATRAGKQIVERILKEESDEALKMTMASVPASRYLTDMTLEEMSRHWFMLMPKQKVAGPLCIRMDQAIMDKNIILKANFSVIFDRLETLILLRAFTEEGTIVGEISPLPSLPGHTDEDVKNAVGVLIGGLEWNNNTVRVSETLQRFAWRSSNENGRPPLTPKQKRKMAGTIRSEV

[25] = biological target: Albumin (Bos taurus, UniProt P02769); assay: Counterscreen for inhibitors of T-cell receptor (TCR)-CD3 interaction: Fluorescence-based biochemical high throughput dose response assay to identify inhibitors of T-cell receptor (TCR)-CD3 interaction using a TAMRA-labeled BSA probe.; type: functional
Chain of Albumin (P02769 whole entry): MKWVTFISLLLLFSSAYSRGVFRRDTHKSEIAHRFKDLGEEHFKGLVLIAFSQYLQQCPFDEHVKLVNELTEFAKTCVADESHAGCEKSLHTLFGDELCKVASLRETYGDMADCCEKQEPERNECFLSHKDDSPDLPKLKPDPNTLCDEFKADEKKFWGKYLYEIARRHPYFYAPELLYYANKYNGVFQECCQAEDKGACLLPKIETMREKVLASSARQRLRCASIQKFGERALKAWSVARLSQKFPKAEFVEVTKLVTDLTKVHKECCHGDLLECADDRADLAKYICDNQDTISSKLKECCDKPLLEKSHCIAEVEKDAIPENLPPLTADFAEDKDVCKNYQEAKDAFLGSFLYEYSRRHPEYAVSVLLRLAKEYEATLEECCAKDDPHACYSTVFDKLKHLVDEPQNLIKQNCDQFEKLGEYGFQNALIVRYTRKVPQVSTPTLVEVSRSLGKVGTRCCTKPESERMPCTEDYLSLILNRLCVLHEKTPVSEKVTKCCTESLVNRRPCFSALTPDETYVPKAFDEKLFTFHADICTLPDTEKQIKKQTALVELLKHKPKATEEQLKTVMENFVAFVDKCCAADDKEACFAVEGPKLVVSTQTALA

[26] = biological target: T3, Replicative DNA helicase DnaB (Mycobacterium tuberculosis, UniProt P9WMR3); assay: DnaB intein splicing inhibitors, dose response, biochemical, cell-free fluorescence (AID 449749); type: functional
T3 sequence (P9WMR3 whole entry): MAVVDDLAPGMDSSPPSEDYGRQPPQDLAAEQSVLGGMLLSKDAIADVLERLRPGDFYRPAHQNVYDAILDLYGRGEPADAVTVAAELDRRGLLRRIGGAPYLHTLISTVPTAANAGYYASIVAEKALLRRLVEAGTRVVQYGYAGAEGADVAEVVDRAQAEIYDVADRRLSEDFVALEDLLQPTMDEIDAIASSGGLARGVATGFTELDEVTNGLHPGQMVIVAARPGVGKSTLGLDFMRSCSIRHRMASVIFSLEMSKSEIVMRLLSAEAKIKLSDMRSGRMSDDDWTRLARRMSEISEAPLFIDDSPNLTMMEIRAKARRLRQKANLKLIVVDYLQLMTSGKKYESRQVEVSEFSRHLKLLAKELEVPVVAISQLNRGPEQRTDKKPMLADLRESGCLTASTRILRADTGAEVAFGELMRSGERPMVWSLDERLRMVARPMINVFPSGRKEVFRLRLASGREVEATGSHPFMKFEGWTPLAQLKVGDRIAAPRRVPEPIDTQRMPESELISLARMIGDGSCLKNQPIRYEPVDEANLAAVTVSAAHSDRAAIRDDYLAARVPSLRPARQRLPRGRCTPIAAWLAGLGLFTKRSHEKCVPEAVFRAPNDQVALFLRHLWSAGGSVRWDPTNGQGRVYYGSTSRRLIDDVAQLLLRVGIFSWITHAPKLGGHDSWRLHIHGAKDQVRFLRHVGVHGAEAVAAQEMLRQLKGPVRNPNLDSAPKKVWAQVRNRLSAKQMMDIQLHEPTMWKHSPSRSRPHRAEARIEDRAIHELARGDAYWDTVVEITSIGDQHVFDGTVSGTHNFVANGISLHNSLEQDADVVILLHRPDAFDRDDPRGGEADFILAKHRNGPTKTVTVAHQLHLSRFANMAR

[27] = biological target: T4, Protein RecA (Mycobacterium tuberculosis, UniProt P9WHJ3); assay: Fluorescence Cell-Free Homogeneous Dose Retest to Identify Inhibitors of RecA-Intein Splicing Activity. [Related pubchem assays (depositor defined):AID2097, AID2223, AID489010, AID492950]; type: functional
T4 sequence (P9WHJ3 whole entry): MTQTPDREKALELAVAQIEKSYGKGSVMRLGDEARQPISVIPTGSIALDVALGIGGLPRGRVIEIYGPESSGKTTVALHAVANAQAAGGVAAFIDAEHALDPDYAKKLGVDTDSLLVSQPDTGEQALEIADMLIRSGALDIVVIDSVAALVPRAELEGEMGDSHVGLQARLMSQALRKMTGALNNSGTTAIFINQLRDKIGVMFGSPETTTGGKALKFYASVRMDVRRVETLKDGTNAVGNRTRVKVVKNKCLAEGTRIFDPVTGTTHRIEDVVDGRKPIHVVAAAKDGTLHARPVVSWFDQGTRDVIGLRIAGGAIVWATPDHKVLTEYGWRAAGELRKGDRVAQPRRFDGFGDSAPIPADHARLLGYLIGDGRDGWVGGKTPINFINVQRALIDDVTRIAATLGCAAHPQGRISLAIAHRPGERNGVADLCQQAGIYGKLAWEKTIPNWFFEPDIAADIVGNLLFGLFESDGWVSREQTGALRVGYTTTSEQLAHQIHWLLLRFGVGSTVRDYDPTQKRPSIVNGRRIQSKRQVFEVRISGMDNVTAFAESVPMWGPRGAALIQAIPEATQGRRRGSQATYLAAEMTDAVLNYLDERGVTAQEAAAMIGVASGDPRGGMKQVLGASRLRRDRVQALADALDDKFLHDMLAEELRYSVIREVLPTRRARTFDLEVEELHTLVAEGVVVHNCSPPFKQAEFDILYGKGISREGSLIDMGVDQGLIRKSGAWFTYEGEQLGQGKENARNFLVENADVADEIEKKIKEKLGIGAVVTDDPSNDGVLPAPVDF

[28] = biological target: T5, Sentrin-specific protease 8 (Homo sapiens, UniProt Q96LD8); type: functional
T5 sequence (Q96LD8 whole entry): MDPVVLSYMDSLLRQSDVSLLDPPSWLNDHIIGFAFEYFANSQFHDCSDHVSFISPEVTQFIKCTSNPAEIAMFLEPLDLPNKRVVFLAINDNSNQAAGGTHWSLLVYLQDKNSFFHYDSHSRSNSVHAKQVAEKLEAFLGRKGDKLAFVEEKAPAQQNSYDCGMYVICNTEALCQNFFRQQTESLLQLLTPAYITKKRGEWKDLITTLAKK

[29] = biological target: T5, Sentrin-specific protease 8; type: functional; remark: listed apart in the source
[30] = biological target: T6, Caspase-3 (Homo sapiens, UniProt P42574); assay: Dose-response confirmation of uHTS inhibitor hits of Sentrin-Specific Protease 8 in a Caspase-3 Fluorescence assay.; type: functional
T6 sequence (P42574 whole entry): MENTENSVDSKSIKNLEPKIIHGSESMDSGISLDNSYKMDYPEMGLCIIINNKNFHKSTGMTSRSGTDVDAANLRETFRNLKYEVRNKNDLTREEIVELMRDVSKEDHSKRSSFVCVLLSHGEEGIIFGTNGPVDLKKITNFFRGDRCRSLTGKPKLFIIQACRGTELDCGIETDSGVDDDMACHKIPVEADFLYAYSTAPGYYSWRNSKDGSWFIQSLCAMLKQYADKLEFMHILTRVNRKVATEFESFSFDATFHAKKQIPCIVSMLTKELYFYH

## CCOC(=O)C1(CCOc2ccccc2)CCN(Cc2ccc(O)cc2)CC1
[1]
  AC50: 10 µM (active)

## CN(CC(=O)Nc1c(Cl)cccc1Cl)C(=O)c1cccc(-n2cccc2)c1
[2]
  IC50: 13.9 µM (active)
[3]
  IC50: 34.6 µM (active)
[4]
  AC50: 1.88 µM (active)
[5]
  AC50: > 70 µM (inactive)
[6]
  IC50: > 100 µM (active)
[7]
  CC50: > 40 µM (active)

## COc1ccc(Br)c(C(=O)Nc2nc3ccccc3[nH]2)c1
[8]
  EC50: > 91.1 µM (inactive)
[9]
  EC50: > 91.1 µM (inactive)

## COCCCn1c(C(=O)N2CCOCC2)cc2c(=O)n3ccccc3nc21
[10]
  AC50: 9.81 µM (active)

## CCOC(=O)c1ccc(NC(=O)COc2ccc(S(=O)(=O)N3CCCC3)cc2)cc1
[11]
  EC50: 391 nM (active) and 162 nM (active)
[12]
  EC50: 1.37 µM (active)

## CCC(SC1=Nc2ccccc2C2=NC(CC(C)C)C(=O)N12)C(=O)Nc1ccc2c(c1)OCO2 (stereo unspecified)
[13]
  Ki: 37.6 µM (inactive)

## CCn1cc(CN2CCCC(C(=O)Nc3cccc(-c4cc5ccccc5[nH]4)c3)C2)c(C)n1 (stereo unspecified)
[14]
  CC50: 24.9 µM (active)
[15]
  AC50: 40.9 µM (active)

## CC1CCC(CN2CCN=C2Nc2ccccc2)CC1 (stereo unspecified)
[16]
  AC50: 31.6 µM (active)

## CCOc1ccc(NC(=O)c2cc(=O)c(OC)c[nH]2)cc1
[17]
  IC50: > 100 µM (inactive)
[18]
  IC50: > 100 µM (inactive)

## CC(C)N1C[C@@H](CN(C)Cc2ccc(Cl)cc2)Oc2c(NC(=O)c3cn(C)cn3)cccc2C1=O
[19]
  AC50: 0.0198 µM (active)

## COc1ccc(OC)c(S(=O)(=O)Nc2cc(SCC(=O)O)c(O)c3ccccc23)c1
[20]
  CC50: 9.6 µM (active)

## CC(C)(C)c1csc(N/N=C/c2ccc(O)cc2)n1
[21]
  AC50: 69.4 µM (active)
[22]
  AC50: > 52 µM (inactive)
[23]
  AC50: > 52 µM (inactive)

## Nc1nnc(CC(=O)N/N=C\c2cc([N+](=O)[O-])ccc2O)s1
[24]
  IC50: 7.93 µM (active)
[25]
  IC50: > 94.1 µM (inactive)

## CCOC(=O)c1nn(-c2ccc(OC)cc2)c(=O)c2c(N)scc12
[26]
  AC50: 23.2 µM (active)
[27]
  EC50: 1.59 µM (active)
[28]
  IC50: 6.99 µM (active)
[29]
  IC50: 5.63 µM (active)
[30]
  IC50: 23 µM (active)
[4]
  AC50: 34.3 µM (active)
